Like-named read-outs stand apart in the source and are kept apart here. Values belong to the compound of their own block, whether it stands above or below them.
Columns and labels:
[1] = system: platelet aggregation; test: whole blood aggregometry, agonist-induced platelet aggregation; assay type: cell-based, swine; settings: for platelet aggregation: 3 pigs
Method: Thirty minutes after administration of the heparin (in the heparin alone) or magnesium, 3 mL venous blood was collected in a siliconized test tube containing 0.3 mL of 0.129 molar sodium citrate or sodium heparin (Becton Dickinson Vacutainer System). Whole blood aggregometry (Chronolog Corp.) was used to measure collagen (2 and 5 μg/mL)- and Adenosine diphosphate (2.5 μM)-induced platelet aggregation. Aggregation was expressed as maximal increase in electrical impedance measured in ohms at 6 minutes after the addition of agonist.

[2] = Method: (§1) Twenty one low-risk patients undergoing non-acute percutaneous coronary intervention with stent implantation received a two gm bolus of intravenous MgSO4 followed by a 1.5 gm/hour infusion for four hours and a 1 gm/hour infusion for the next eight hours. […] The preset primary endpoints for this experiment were: acute thrombotic occlusion and need for platelet IIb/IIIa inhibitors bailout, death, myocardial infarction, recurrent ischemia and need for urgent revascularization at 48 hours and 30 days. The secondary safety endpoints included hypotension, bradycardia, bleeding complications and heart block within the first 24 hours.
[3] = system: in-stent thrombosis
Method: as §1

[4] = system: platelets; settings: cited from earlier work
[5] = activated clotting time (ACT), Hemochron 400; assay type: in vivo, swine
Method: In the experiment discussed herein that was conducted according to one embodiment of the present invention, ACT was determined using a Hemochron 400 (International Technidyne Corp.) machine in standard fashion. See Makkar R R, Litvack F, Eigler N L, Nakamura M, Ivey P A, Forrester J S, Shah P K, Jordan R E, Kaul S, Effects of GP IIb/IIIa Receptor Monoclonal Antibody (7E3), Heparin, and Aspirin in an Ex Vivo Canine Arteriovenous Shunt Model of Stent Thrombosis, Circulation, 1997; 95(4): 1015-1021; and Makkar R R, Eigler N L, Kaul S, Nakamura M, Forrester J S, Herbert J-M, Litvack F I, Effects of clopidogrel, aspirin and combined therapy in a porcine ex vivo model of high-shear induced stent thrombosis, Eur Heart J, 1998; 19:1538-1546.

[6] = complete blood cell count; settings: data not shown
[7] = bleeding time from thigh incision; assay type: in vivo, swine
Method: Bleeding time is defined as the time from the creation of an incision to the point where bleeding from the incision ceases. In the experiment according to one embodiment of the present invention discussed herein, bleeding time was measured from an incision on the ventral surface of the thigh with a No. 11 surgical knife.

[8] = serum magnesium level, magon dye method; assay type: in vivo, swine; settings: in words, FIG. 5
Method: Serum magnesium levels for the test subjects were measured spectrophotometrically using the magon dye method. See Elm R J, Determination of serum magnesium concentration by clinical laboratories, […], 1991-92:60-6.

[9] = magnesium sulfate intravenously, ANOVA
Method: The graph in FIG. 3 was generated by taking between 10 and 14 observations at each time point. The MABP was measured in millimeters of mercury (mmHg). The heart rate was measured in beats per minute (BPM).

[10] = system: acute platelet-dependent stent thrombosis; test: ex-vivo porcine arteriovenous shunt model of high-shear stent thrombosis (thrombus weight); assay type: in vivo, swine
Method: An experiment according to one embodiment of the present invention was performed using an ex-vivo model that primarily examines shear-mediated, platelet-dependent thrombus formation. This experiment allowed for the evaluation of the effects of magnesium, and the time-dependent nature thereof, on acute platelet-dependent stent thrombosis in an ex-vivo porcine arteriovenous shunt model of high-shear blood flow.
(§2) Experiments were performed in 10 swine weighing 25 to 30 kg. […] The right carotid artery and jugular vein were isolated and cannulated with 8F sheaths to establish an extracorporeal circuit as described previously. […] Arterial blood gases and pH were monitored periodically and maintained at normal levels by adjustment of the ventilation rate and tidal volume. Invasive arterial pressure measurement, oxygen saturation, ECG, and rectal temperature were monitored continuously. A thermostatically controlled blanket was used to maintain temperature at 37° C. Venous blood was collected for baseline platelet aggregation, complete blood cell count, and activated clotting time (ACT) measurements.
All animals received heparin at a dose of 10 U/kg as a bolus before the study to prevent thrombotic occlusion of catheters and tubing. […]

[11] = system: acute platelet-dependent stent thrombosis; settings: 10 U/kg bolus, average of 200 U per swine; cited from earlier work
[12] = in vivo
Method: as §2
All animals received heparin at a dose of 10 U/kg as a bolus before the study to prevent thrombotic occlusion of catheters and tubing. […] At the conclusion of the experiment, blood was collected for complete blood cell counts, the carotid artery and jugular vein were ligated, and the animals were allowed to recover from anesthesia before being returned to the vivarium. Each animal was studied twice with a minimum interval of 2 weeks between each experiment.
At the end of each treatment, control stents were perfused to ensure return of stent thrombus weights towards baseline pre-treatment values. Effects on thrombus weight (TW), whole-blood platelet aggregation (PA), bleeding time (BT), activated clotting time (ACT), serum magnesium level, and complete blood count (CBC) were quantified at various time points as shown in the protocol schematic. Mean arterial blood pressure (MABP) and heart rate (HR) were monitored and recorded throughout the protocol.

[13] = in words, beyond the heparin effect

Compound: O=S(=O)([O-])[O-].[Mg+2] [Mg, magnesium sulfate]
- effect on platelet aggregation ([1]; ADP (2.5 μM), data not shown): no effect
- whole-blood platelet aggregation ([1]; FIG. 5, 5 μg/mL collagen, with addition of magnesium, from 25±3, not significant): 21±5 ohms
- platelet aggregation (maximal increase in electrical impedance) ([1]; Mg-late alone, 6 minutes after agonist, baseline 25±3): 22±3 ohms
- platelet aggregation (maximal increase in electrical impedance) ([1]; Mg-treated animals, >40 minutes post-bolus (Mg-late)): 21.0±5 ohms
- platelet aggregation (maximal increase in electrical impedance) ([1]; Mg-treated animals, within 20 minutes post-bolus (Mg-early)): 23±4 ohms
- platelet aggregation ([1]; citrate-stabilized blood, post-Mg (25±3 pre)): 22±3 ohms
- effect on platelet aggregation ([1]; collagen 2 μg/ml, data not shown): no effect
- platelet aggregation ([1]; heparin-stabilized samples, post-Mg (26±2 pre)): 27±2 ohms
- effect on platelet aggregation ([1]; in words, listed as Magnesium): no significant effects
- effect on platelet aggregation ([1]; in words, listed as magnesium): no significant effect
- effect on heart rate ([2]; patients, IV MgSO4): did not have a significant effect
- effect on mean arterial blood pressure ([2]; patients, IV MgSO4): did not have a significant effect
- serum magnesium level ([2]; post-bolus (2 gm IV MgSO4), baseline 2.1±0.3, P<0.0001): 3.2 ± 0.3 mg/dL
- serum magnesium level ([2]; post-infusion (total 16 gm)): 3.5 ± 0.8 mg/dL
- GP IIb/IIIa inhibitors bailout ([3]; 21 patients): no case
- death ([3]; 21 patients): not seen
- myocardial infarction ([3]; 21 patients): not seen
- urgent revascularization ([3]; 21 patients): not seen
- coronary artery blood flow at end of intervention ([3]; all cases, 21 patients): normal coronary artery blood flow (TIMI 3 flow)
- hemostatic or hemodynamic complications ([3]; human subjects): without any hemostatic or hemodynamic complications
- concentration at which anti-adhesive effect may occur [4]: < 4 mEq/L
- concentration at which anti-aggregatory effect may occur [4]: > 5 mEq/L
- effect on activated clotting time (ACT) [5, 13]: no significant effects
- effect on hematocrit [6]: no significant effects
- effect on platelet counts [6]: no significant effects
- effect on white blood cell counts [6]: no significant effects
- effect on bleeding time [7, 13]: no significant effects
- serum magnesium levels compared to control [8]: higher
- effect on heart rate ([9]; listed as Magnesium): no significant effects
- effect on mean arterial blood pressure (MABP) ([9]; listed as Magnesium): no significant effects
- effect on heart rate ([9]; listed as magnesium): no statistically significant effects
- effect on mean arterial blood pressure (MABP) ([9]; listed as magnesium): no statistically significant effects

- bleeding time ([7]; in vivo): 5.3±0.6
- effect on hematocrit [12]: no significant effects
- effect on platelet counts [12]: no significant effects
- effect on white blood cell counts [12]: no significant effects
Compound: heparin
- platelet aggregation (maximal increase in electrical impedance) ([1]; heparin alone, 6 minutes after agonist, baseline 25±3): 24±6 ohms
- effect on thrombus formation (FIG. 2(a)) ([10]; given alone, magnesium both early and late groups): reduce thrombus formation slightly
- reduction of stent thrombus weight (TW) ([10]; heparin alone, 50 U/kg IV bolus then 25-50 U/kg/hr, versus pre-treatment, mean±SD): 48±16%
- ACT ([5]; prolonged from 109±8 seconds, P<0.01): 185 ± 36 s
- effect on thrombus formation at high-shear conditions [11]: negligible effects

Source: patent US7279183B2, “Method of reducing thrombosis and complications after arterial angioplasty using stent coated with magnesium-based compound” (Cedars-Sinai Medical Center, priority 2001, dated 2007)
